These results are taken from patent US10729749B2, “Neurodegenerative disorders” (priority 2014, dated 2020).

What is called viability is a read-out of living cells in per cent, often relative to untreated cells.

Data set [1] deals with PC12 cells. As to the kind of experiment: Acetylcholinesterase activity assay (AChE release from PC12 cells, Ellman reagent). The data set is classed as cell-based. The following applies: % AChE release compared to untreated control. How it is done: AChE activity was measured using the Ellman reagent that measures the presence of thiol groups as a result of AChE activity. Cells were plated the day before the experiment as for the cell viability assay. […] The Ellman reagent was prepared as a mixture of the 3 solutions in a ratio 33(A):3(B):4(C). Absorbance measurements were taken at regular intervals (3, 10, 30 and 60 mins) across experiments at 405 nm.
Background: In Ellman's method for cholinesterases, released thiocholine reacts with DTNB.

Data set [2] deals with PC12 cells. As to the kind of experiment: Value coefficient (AChE release vs PC12 cell viability) and filter selection. The conditions noted are these: for Value AChE/Viability: 1.0 to 1.1 = protective, control = 1; for neuroprotective agent against T30 when all four filters are taken into consideration: filters: value coefficient, in silico binding, calcium influx, peptide size. The data set is classed as cell-based.
Description: AChE release vs PC12 cell viability (for which there is a significant negative correlation); • 2. In silico binding to the allosteric site of the α7 nicotinic-receptor; • 3. Calcium influx into PC12 cells; and • 4. Peptide size.

Data set [3] can be described thus: Cell viability assay (Cell Counting Kit-8).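 Note: PC12 cells in 96-well plates, WST-8 turned into formazan by cellular dehydrogenases, absorbance read at 450 nm after 2 h with the reagent, signal proportional to living cell number.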 The data set is classed as cell-based. The following applies: % PC12 cell viability compared to untreated control. In general terms: Tetrazolium assays rely on reduction of a dye to a coloured formazan, in cell work by metabolically active cells.
Data set [4] deals with PC12 cells. As to the kind of experiment: Calcium fluorometry (Fluo-8, acetylcholine-induced calcium influx). Also noted: Calcium: scale not given here. Type of data set: cell-based. The conditions noted are these: for Calcium: calcium influx value, control based on acetylcholine alone. The text has this:
A final criterion used to determine active peptides is the amount of calcium influx into PC12 cells caused by the peptide. The calcium influx value can be calculated as described in the methods section. The calcium value corresponds to the result from the experiment when applying T30 or Aβ alone or in conjunction with the small peptides. The control value for these experiments is based on the calcium influx induced by acetylcholine alone. Preferably, the peptide, derivative or analogue thereof has a calcium influx value of less than 120, and more preferably a value of 97-120.
PC12 cells are plated in 200 μl of complete growth medium the day before the experiment in 96 well plates. On the day of the experiment, the Fluo-8 solution (Abcam) is prepared (as per provider protocol). Subsequently, 100 μl of growth medium is removed and 100 μl of Fluo-8 solution is added. Treatments with T30 or Aβ in conjunction with NBP-14 or small peptides are added and incubated for 30 minutes in the incubator and 30 minutes room temperature.
After 1 hour, the plate is placed in the fluorescence plate reader (Fluostar). Before reading the fluorescence, acetylcholine (ACh) 100 μM is prepared and placed in the Fluostar injector. For each well, the reading will be formed by a basal fluorescence followed by acetylcholine injection that will induce an increase of calcium via nicotinic receptors. The effects of the peptides are then evaluated.

Data set [5] has as its target α7 nicotinic-receptor (Homo sapiens, UniProt P36544). The following applies: cited from earlier work.
Setting [6] is: T30 5 μM + small peptide 0.5 μM.

Ends that are not written are not given here.

Chain of α7 nicotinic-receptor (P36544 23-502): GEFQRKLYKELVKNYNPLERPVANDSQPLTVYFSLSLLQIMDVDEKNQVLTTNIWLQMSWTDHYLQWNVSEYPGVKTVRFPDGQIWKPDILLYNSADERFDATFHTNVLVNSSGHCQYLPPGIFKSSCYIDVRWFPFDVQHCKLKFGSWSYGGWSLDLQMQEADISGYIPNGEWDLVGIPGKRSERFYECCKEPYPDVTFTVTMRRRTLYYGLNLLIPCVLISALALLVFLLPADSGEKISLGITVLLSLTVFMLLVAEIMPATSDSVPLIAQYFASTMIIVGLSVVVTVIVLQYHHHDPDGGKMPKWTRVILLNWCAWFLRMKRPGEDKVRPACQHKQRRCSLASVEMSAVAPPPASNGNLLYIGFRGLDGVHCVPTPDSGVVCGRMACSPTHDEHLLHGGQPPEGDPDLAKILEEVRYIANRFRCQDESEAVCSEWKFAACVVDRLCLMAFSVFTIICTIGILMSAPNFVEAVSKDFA

HWKAEFHRWSSY [NBP-1201]: the AChE in data set [1] (Aβ 5 μM + small peptide 0.5 μM) is on record as 94.84%. In addition, the “Value AChE/Viability” value in data set [2] (Aβ 5 μM + small peptide 0.5 μM) was 1.02. For the same compound, in data set [3] (Aβ 5 μM + small peptide 0.5 μM), the viability was 93.1%. In addition, in data set [4] (Aβ + small peptide), the Calcium turned out to be 114.35.

As to EFHRWSS [NBP-705, EFHRWSS], the AChE in data set [1] (setting [6]) was 94.07%. The “Value AChE/Viability” value in data set [2] (setting [6]) was determined as 1.03. The “neuroprotective agent against T30 when all four filters are taken into consideration” value (from here on “neuroprotective agent against T30”) in data set [2] was “neuroprotective agents against T30”. Further, the viability in data set [3] (setting [6]) is 91%. Further, the Calcium in data set [4] (T30 + small peptide) was determined as 111.98.

With HWKAEFHRWSS [NBP-1101], the AChE in data set [1] (setting [6]) is on record as 91.9%. Further, in data set [2] (setting [6]), the “Value AChE/Viability” value stood at 1. In addition, in data set [3] (setting [6]), the viability is 91.9%. The Calcium in data set [4] (T30 + small peptide) worked out at 86.58.

As to SSYMV [NBP-510], the AChE in data set [1] (Aβ 5 μM + small peptide 0.5 μM) stood at 104.25%. Also, in data set [2] (Aβ 5 μM + small peptide 0.5 μM), the “Value AChE/Viability” value worked out at 1.03. The viability in data set [3] (Aβ 5 μM + small peptide 0.5 μM) came to 101%. In data set [4] (Aβ + small peptide), the Calcium came to 167.56.

Turning to WKAEFHRWSSY [NBP-1102], the AChE in data set [1] (setting [6]) amounted to 104.31%. Further, in data set [2] (setting [6]), the “Value AChE/Viability” value amounted to 1. Besides, the viability in data set [3] (setting [6]) came to 104%. In addition, the Calcium in data set [4] (T30 + small peptide) came out at 89.28.

For HRWSSYMVHWKAE [NBP-1307], the AChE in data set [1] (Aβ 5 μM + small peptide 0.5 μM) is reported as 94.29%. The “Value AChE/Viability” value in data set [2] (Aβ 5 μM + small peptide 0.5 μM) is reported as 1.02. In data set [3] (Aβ 5 μM + small peptide 0.5 μM), the viability was 92.5%. The Calcium in data set [4] (Aβ + small peptide) is recorded as 218.25.

On to HRWSSY [NBP-607], for which the AChE in data set [1] (Aβ 5 μM + small peptide 0.5 μM) was determined as 97.53%. In data set [2] (Aβ 5 μM + small peptide 0.5 μM), the “Value AChE/Viability” value came to 1.03. Moreover, in data set [3] (Aβ 5 μM + small peptide 0.5 μM), the viability is 94.9%. The Calcium in data set [4] (Aβ + small peptide) turned out to be 168.97.

Regarding MVHWKAEFHR [NBP-1013], in data set [1] (setting [6]), the AChE stood at 91.79%. For the same compound, the “Value AChE/Viability” value in data set [2] (setting [6]) is given as 1.08. Also, the viability in data set [3] (setting [6]) was 85.3%. Further, the Calcium in data set [4] (T30 + small peptide) is 181.12.

Turning to HWKAEF [NBP-601, HWKAEF], the AChE in data set [1] (setting [6]) amounted to 100.99%. Moreover, the “Value AChE/Viability” value in data set [2] (setting [6]) turned out to be 1.08. Also, the “neuroprotective agent against T30” value in data set [2] is “neuroprotective agents against T30”. Besides, the viability in data set [3] (setting [6]) turned out to be 93.2%. Also, the Calcium in data set [4] (T30 + small peptide) is listed as 118.37. Also, in data set [4] (dose-dependent experiments, FIGS. 8 and 9), the “dose-dependent effect on calcium potentiation against T30” value is listed as “protect against T30 effects”.

Turning to RWSSYMVHWKA [NBP-1108], the AChE in data set [1] (Aβ 5 μM + small peptide 0.5 μM) was 82.74%. Further, the “Value AChE/Viability” value in data set [2] (Aβ 5 μM + small peptide 0.5 μM) was determined as 1.06. The viability in data set [3] (Aβ 5 μM + small peptide 0.5 μM) came out at 77.7%. Also, the Calcium in data set [4] (Aβ + small peptide) is recorded as 392.11.

As to FHRWSSYMVHWKAE [NBP-1406], the AChE in data set [1] (setting [6]) came to 92.78%. The “Value AChE/Viability” value in data set [2] (setting [6]) was 1.07. Moreover, the viability in data set [3] (setting [6]) worked out at 86.6%. For the same compound, the Calcium in data set [4] (T30 + small peptide) is 101.06.

As for AEFHRWSS [NBP-804], the AChE in data set [1] (setting [6]) is listed as 107.69%. The “Value AChE/Viability” value in data set [2] (setting [6]) came out at 1. The “neuroprotective agent against T30” value in data set [2] is “neuroprotective agents against T30”. The viability in data set [3] (setting [6]) is 108%. In addition, the Calcium in data set [4] (T30 + small peptide) is recorded as 106.7.

Take VHWKAEFHRWSS [NBP-1214]: the AChE in data set [1] (Aβ 5 μM + small peptide 0.5 μM) turned out to be 89.28%. Also, the “Value AChE/Viability” value in data set [2] (Aβ 5 μM + small peptide 0.5 μM) was 1.04. In data set [3] (Aβ 5 μM + small peptide 0.5 μM), the viability worked out at 85.5%. For the same compound, in data set [4] (Aβ + small peptide), the Calcium is on record as 217.64.

With EFHRWSSYMVHWKA [NBP-1405], the AChE in data set [1] (setting [6]) worked out at 91.57%. Also, in data set [2] (setting [6]), the “Value AChE/Viability” value is given as 1.09. In addition, in data set [3] (setting [6]), the viability was found to be 83.9%. Further, in data set [4] (T30 + small peptide), the Calcium is given as 100.59.

Consider YMVHW [NBP-512], for which, in data set [1] (Aβ 5 μM + small peptide 0.5 μM), the AChE came out at 104.81%. In data set [2] (Aβ 5 μM + small peptide 0.5 μM), the “Value AChE/Viability” value amounted to 1.01. Also, the viability in data set [3] (Aβ 5 μM + small peptide 0.5 μM) came out at 104%. Moreover, the Calcium in data set [4] (Aβ + small peptide) is recorded as 163.09.

For the compound RWSSY [NBP-508], the AChE in data set [1] (Aβ 5 μM + small peptide 0.5 μM) turned out to be 106.06%. Further, the “Value AChE/Viability” value in data set [2] (Aβ 5 μM + small peptide 0.5 μM) was 1.09. Besides, in data set [3] (Aβ 5 μM + small peptide 0.5 μM), the viability was 97.6%. The Calcium in data set [4] (Aβ + small peptide) is listed as 120.72.

Turning to VHWKAEFHRWSSY [NBP-1314], the AChE in data set [1] (Aβ 5 μM + small peptide 0.5 μM) is listed as 104.08%. Further, the “Value AChE/Viability” value in data set [2] (Aβ 5 μM + small peptide 0.5 μM) worked out at 1.06. Besides, the viability in data set [3] (Aβ 5 μM + small peptide 0.5 μM) worked out at 97.9%. Besides, in data set [4] (Aβ + small peptide), the Calcium was determined as 130.85.

As to `COc1ccc2c3c1O[C@H]1C[C@@H](O)C=C[C@@]31CCN(C)C2` [galanthamine], the “affinity for the α7 nicotinic-receptor” value in data set [5] was 10 µM.

As to SYMVHWKAEF [NBP-1011], in data set [1] (Aβ 5 μM + small peptide 0.5 μM), the AChE was 84.13%. Moreover, in data set [2] (Aβ 5 μM + small peptide 0.5 μM), the “Value AChE/Viability” value is given as 1.03. In data set [3] (Aβ 5 μM + small peptide 0.5 μM), the viability came to 81.7%. Moreover, the Calcium in data set [4] (Aβ + small peptide) is given as 161.87.
